Source: patent US8980919B2, “Combination of a carbostyril and carnitine” (Otsuka Pharmaceutical Co., Ltd., priority 2008, dated 2015)

Test system: chronic cerebral ischemia model rats
Experiment: Immunohistological evaluation of brain in chronic cerebral ischemia model rats (ligation of both carotid arteries)
Assay type: in vivo, rat
Details: for number of GST-pi positive oligodendrocyte in the callosum: after LBCCA, L-carnitine 600 mg/kg/day, cilostazol 50 mg/kg/day, FIG. 2; for number of GST-pi positive oligodendrocyte in the callosum / 8-OHdG positive cell (cell dysfunction by peroxidation): vs vehicle; for 8-OHdG positive cell (cell dysfunction by peroxidation): day 7 to day 28 after LBCCA, FIG. 3; for 8-OHdG positive cell (cell dysfunction by peroxidation) / number of ss-DNA positive cells (marker of apoptosis) / HNE staining positive cells (peroxidative metabolism): P<0.01; for number of ss-DNA positive cells (marker of apoptosis) / HNE staining positive cells (peroxidative metabolism): vs vehicle group; for number of ss-DNA positive cells (marker of apoptosis): FIG. 5; for HNE staining positive cells (peroxidative metabolism): FIG. 4
Description: The cerebroprotective action of cilostazol for inflammatory reaction due to oxidative stress and glial cell was studied using chronic cerebral ischemia model rats as cerebrovascular dementia model animals. Using Wister rats (male, aged 7-8 weeks, body weights of 150-200 g), chronic cerebral ischemia model rats are prepared according to the method of […] et al. (Acta Neuropathol (Berl). 87, 484-492, 1993), i.e. by double-ligating both […] of the rats. As a physiological evaluation, body temperature and body fluid of the rats before/after the preparation are measured, and the cerebral blood flow thereof is analyzed with a Doppler device. To the rats of each administration group of vehicle, L-carnitine, cilostazol, and L-carnitine/cilostazol combination, each defined administration is done every day by natural ingestion from the day when the preparation of ischemia was completed to the final day for the experimental evaluation. […] After brain parenchyma of the rats is sliced in 20 μm, HE and KB stainings and several immunostainings are carried out. The dosage of each trial is 600 mg/kg/day for L-carnitine and 50 mg/kg/day for cilostazol. Regarding glial cell, the astrocyte is evaluated with an antibody for GFAP, the microglia is evaluated with an antibody for Iba-1, and the oligodendrocyte is evaluated with an antibody for glutathione S-transferase p^+ (GST-pi). And, the oxidative stress is evaluated with an antibody for anti 4-hydroxy-2-nonenal (HNE).

SMILES | number of GST-pi positive oligodendrocyte in the callosum | 8-OHdG positive cell (cell dysfunction by peroxidation) | number of ss-DNA positive cells (marker of apoptosis) (day 14) | HNE staining positive cells (peroxidative metabolism) | number of ss-DNA positive cells (marker of apoptosis) (days 14, 21 and 28)
C[N+](C)(C)C[C@H](O)CC(=O)[O-] [carnitine, L-carnitine] | increased more than that of the vehicle group | significantly decreased | significantly decreased compared with the vehicle group | tended to significantly decrease compared with the vehicle group | 
O=C1CCc2cc(OCCCCc3nnnn3C3CCCCC3)ccc2N1 [cilostazol, 6-[4-(1-cyclohexyl-1H-tetrazol-5-yl)butoxy]-3,4-dihydrocarbostyril] | increased more than that of the vehicle group | significantly decreased |  | tended to significantly decrease compared with the vehicle group | significantly decreased compared with the vehicle group
